In US9550811B2, “Peptide scaffold design” (BIONOR IMMUNO AS, priority 2010, dated 2017):
Where no end group is shown, it is not given here. [ ]: non-standard residue; d: D form. Nle = CCCC[C@H](N)C(=O)O

Legend:
Experiment in all cases: REVEAL binding assay
Settings in all cases: score as percentage of the signal generated by the positive control peptide
HLA-B27 = HLA-B27 (Homo sapiens, UniProt P01889, D138H/D201E/E176V/E204Q/G107R/H137Y/K202T/N104T/N87E/Q56L/Q94K/R106L/R155S/R180L/S101D/S121N/S48T/Y140D/Y33H/Y91C)
Experimental: (§1) Binding properties to HLA for the ninemers listed in table 6 were tested for the following HLA-classes:
(§2) HLA-A1, HLA-A2, HLA-A3, HLA-A11, HLA-A24, HLA-A29, HLA-B7, HLA-B8, HLA-B14, HLA-B15, HLA-B27, HLA-B35, HLA-B40.
(§3) The peptides were synthesized as a Prospector PEPscreen®: Custom Peptide Library. […] Quality control by MALDI-TOF Mass Spectrometry was carried out on 100% of samples.
(§4) The REVEAL™ binding assay determined the ability of each candidate peptide to bind to one or more MHC class I alleles and stabilizing the MHC-peptide complex. By comparing the binding to that of high and intermediate affinity T cell epitopes, the most likely immunogenic peptides in a protein sequence can be identified. Detection is based on the presence or absence of the native conformation of the MHC-peptide complex. Each peptide is given a score relative to the positive control peptide, which is a known T cell epitope.

HLA-A11 = HLA-A11 (Homo sapiens, UniProt P04439, A114D/F33Y/S129P)
Experimental: as §1, §2, §3, §4

HLA-B7 = HLA-B7 (Homo sapiens, UniProt P01889)
Sequence of HLA-B7 (P61769 21-119): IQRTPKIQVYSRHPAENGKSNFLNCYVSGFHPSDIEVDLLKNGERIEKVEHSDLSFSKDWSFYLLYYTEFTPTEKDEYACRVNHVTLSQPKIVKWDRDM
Sequence of HLA-B7 (P01889 25-299): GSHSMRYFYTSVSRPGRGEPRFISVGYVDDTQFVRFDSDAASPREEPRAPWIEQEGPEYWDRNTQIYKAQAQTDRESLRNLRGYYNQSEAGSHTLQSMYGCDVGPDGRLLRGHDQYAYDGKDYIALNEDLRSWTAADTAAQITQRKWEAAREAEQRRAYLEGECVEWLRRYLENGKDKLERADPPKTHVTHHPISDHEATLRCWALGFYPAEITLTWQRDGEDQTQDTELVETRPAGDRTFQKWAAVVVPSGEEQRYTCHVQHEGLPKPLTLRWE
Experimental: as §1, §2, §3, §4

HLA-A3 = HLA-A3 (Homo sapiens, UniProt P04439)
Sequence of HLA-A3 (P04439 25-299): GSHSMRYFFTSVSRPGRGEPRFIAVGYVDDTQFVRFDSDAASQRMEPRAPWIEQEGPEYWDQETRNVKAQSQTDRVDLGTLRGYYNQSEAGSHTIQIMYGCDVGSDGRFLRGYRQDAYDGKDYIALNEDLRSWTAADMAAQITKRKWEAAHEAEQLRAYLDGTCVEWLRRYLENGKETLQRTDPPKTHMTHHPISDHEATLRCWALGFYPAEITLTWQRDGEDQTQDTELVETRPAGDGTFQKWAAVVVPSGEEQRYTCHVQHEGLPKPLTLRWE
Sequence of HLA-A3 (P61769 21-119, further chain): as the sequence (P61769 21-119) above
Experimental: as §1, §2, §3, §4

HLA-A2 = HLA-A2 (Homo sapiens, UniProt P04439, D140Y/D185E/D98H/E176V/E277Q/G131W/G231S/I119V/I121R/I166T/I218V/N151K/N90K/P208A/P217A/Q86G/Q94H/R138H/R169H)
Experimental: as §1, §2, §3, §4

HLA-B15 = system: HLA-B15
Description: (§5) The REVEAL™ binding assay determined the ability of each candidate peptide to bind to one or more MHC class I alleles and stabilizing the MHC-peptide complex. […] Detection is based on the presence or absence of the native conformation of the MHC-peptide complex. Each peptide is given a score relative to the positive control peptide, which is a known T cell epitope.

HLA-A24 = system: HLA-A24
HLA-B8 = system: HLA-B8
Description: as §5

HLA-B35 = system: HLA-B35
HLA-B14 = system: HLA-B14
HLA-A1 = system: HLA-A1
Description: as §5

HLA-B40 = system: HLA-B40
Experimental: as §1, §2
The peptides were synthesized as a Prospector PEPscreen®: Custom Peptide Library. Peptides 8-15 amino acids in length were synthesized in 0.5-2 mg quantities with high average purity. Quality control by MALDI-TOF Mass Spectrometry was carried out on 100% of samples.
as §4, with “epitope. The score of the test peptide is reported quantitatively as a percentage of the signal generated by the positive control peptide, and the peptide is indicated as having a putative pass or fail result. Assay performance is confirmed by including an intermediate control peptide that is known to bind with weaker affinity to the allele under investigation.” for “epitope.”

HLA-A29 = system: HLA-A29

Substance | REVEAL binding score, HLA-type B27 (HLA-B27) [%] | REVEAL binding score, HLA-type A11 (HLA-A11) [%] | REVEAL binding score, HLA-type B7 (HLA-B7) [%] | REVEAL binding score, HLA-type A3 (HLA-A3) [%] | REVEAL binding score, HLA-type A2 (HLA-A2) [%] | REVEAL binding score, HLA-type B15 (HLA-B15) [%] | REVEAL binding score, HLA-type A24 (HLA-A24) [%] | REVEAL binding score, HLA-type B8 (HLA-B8) [%] | REVEAL binding score, HLA-type B35 (HLA-B35) [%] | REVEAL binding score, HLA-type B14 (HLA-B14) [%] | REVEAL binding score, HLA-type A1 (HLA-A1) [%] | REVEAL binding score, HLA-type B40 (HLA-B40) [%] | REVEAL binding score, HLA-type A29 (HLA-A29) [%]
ARALAHGVR | 3.55 | 3.83 | 4.70 | 2.35 | 6.72 | 13.58 | 1.15 | 18.91 | 2.45 | 1.10 | 20.62 | 50.23 | 31.96
ATGNLPGCS | 2.56 | 2.54 | 1.12 | 3.64 | 4.62 | 3.81 | 0.64 | 10.73 | 7.00 | 0.87 | 7.13 | 90.48 | 22.84
DLMGYIPLV | 1.05 | 5.01 | 4.84 | 4.66 | 103.34 | 7.67 | 1.14 | 22.65 | 2.49 | 0.23 | 16.67 | 39.33 | 25.64
EL[Nle]GYIPLI | 0.67 | 3.21 | 0.68 | 4.54 | 97.87 | 8.91 | 0.92 | 17.05 | 2.55 | 0.14 | 18.29 | 43.10 | 20.93
GGQIIGGNY | 0.24 | 2.40 | 1.09 | 2.23 | 7.06 | 90.62 | 0.39 | 10.52 | 2.22 | 0.25 | 24.04 | 15.03 | 14.38
GGQIVGGVY | 0.66 | 2.71 | 3.99 | 3.47 | 6.88 | 110.34 | 1.78 | 14.66 | 0.54 | 0.32 | 13.97 | 30.75 | 20.46
GITFSIYLI | 3.29 | 4.88 | 2.07 | 1.42 | 7.27 | 8.15 | 3.05 | 8.94 | 9.27 | 0.63 | 9.61 | 68.30 | 10.42
